The source of these data is patent US20250270205A1, “COMPOSITIONS AND METHODS FOR INHIBITING TREM-1” (AUGUSTA UNIVERSITY RESEARCH INSTITUTE, INC., priority 2020, published 2025).

pIC50: −log10 of the molar value.

The target in data set [1] is T1, TREM-1 (Homo sapiens, UniProt Q9NP99). Put plainly: TREM-1 reporter cell line blocking study (GFP expression by flow cytometry). Type of data set: cell-based. Details: expressed in transfected cells; host or cells: TREM-1 reporter cell line (GFP read-out). The note with it: for binding and activation of TREM-1 receptor on reporter cells (GFP expression): TREM-1-positive reporter cells, flow cytometry; for inhibitory effect on agonist-activated TREM-1-specific cells: preincubated with compound 4 hrs, then agonist antibody AF1278 for 24 hrs. The protocol: FIG. 2A is a diagram showing that the engagement of human TREM-1 receptor activates a reporter cell line. […] FIG. 2C is a line graph of the flow cytometry data of FIG. 2B.
(§1) For blocking studies, TREM-1-positive cells were preincubated with each tested compounds for 4 hrs followed by stimulation with agonist antibody AF1278 for an additional 24 hrs (FIGS. 2A-2B).
(A flow cytometer gives signals particle by particle.)

For data set [2], the system named is neutrophils. Put plainly: Assessment of cytotoxicity: number of neutrophils in TREM-1 agonist Ab-stimulated PBMCs. Particulars: human PBMCs, compound at 50 μM 2 hrs pretreatment, TREM-1 agonist Ab 24 hrs.
Description: Peripheral blood mononuclear cells (PBMCs) were isolated from healthy volunteers and were stimulated with TREM-1 agonist Ab for 24 hrs, at concentration of 4 μg/ml (red) or pretreated with indicated compounds (at 50 μM) for 2 hrs and stimulated with agonist AB at concentration of 4 pg/mlfor 24 hrs (blue)
In data set [3] the test system is reporter cells. Put plainly: Cytotoxicity on TREM-1 reporter cells. The data set is classed as cell-based. Particulars: compared to Compound 118818. Here is the method:
as §1

For data set [4], the target named is T1, TREM-1. Put plainly: TREM-1-mediated proinflammatory cytokine production by activated human neutrophils (flow cytometry). Details: endogenous in cells; host or cells: PBMCs from healthy human volunteers, gated on CD15/CD16 neutrophils. The data set is classed as cell-based. The note with it: IL-8, IL-6, IL-12 intracellular staining, vs MH and NCI 118818. Here is the method:
Quantification (percentage) of cytokine-positive neutrophils from untreated, Morin Hydrate (MH)-treated, 118818-treated, and VJDT 8293-treated compounds (from triplicates) was performed. Cells isolated from the same healthy volunteer have been used for indicated experiments.
PBMCs were stained cell surface markers CD15 and CD16. In addition, intracellular staining for proinflammatory cytokines, such as IL-8, IL-6 and IL-12, was performed. PBMCs were gated on CD15, CD16 markers to identify the population of neutrophils.

Data set [5] concerns B16F10 murine melanoma cell. Put plainly: Wound healing assay (cell migration). Type of data set: cell-based. The note with it: 50 μM, 24 hrs. Here is the method: (§2) B16F10 cells were cultured in 6 well plates incubated with either vehicle alone or vehicle with VJDT at 50 μM and streaks were made using a tip when cells were at 80% confluency. Streaks were photographed at 0 hrs or 24 hrs at 100×. B16F10 cells were treated with VJDT at 50 μM concentration followed by 10 μM CFSE labeling according to manufacturer's protocol. After 48 hrs cells were analyzed by flow cytometry for CFSE intensity that will be inversely proportional to cell proliferation. Further, cell cycle assay via propidium iodide on B16F10 cells with or without VIDT treatment was performed for investigating the anti-proliferative effect of VJDT in tumor cells

The test system of data set [6] is B16F10 cells. Put plainly: CFSE cell proliferation assay. The data set is classed as cell-based, murine. Particulars: 50 μM, 48 hrs; listed as VIDT. Here is the method:
as §2

Data set [7] relates to Wild-type mice (Trem1+/+) with CCl4 injury. Put plainly: CCl4 liver injury, inflammatory cell infiltration at early stages of liver fibrosis. Particulars: 25 mg/kg oral. Type of data set: in vivo. The protocol:
Wild-type mice (Trem1^+/+) were orally administered VJDT (25 mg/kg) 5 consecutive days prior to injury with CCl4 (2 ml/kg, diluted 1:4 in corn oil) (24 hrs) or one dosage of control corn oil (Sigma-Aldrich, St. Louis, MO, USA). Liver cells were isolated 24 hrs after CCl4 injury, perfused with calcium and magnesium-free 40° C. prewarmed HBSS solution (Corning Life Sciences, Corning, NY, USA) and digested with collagenase type I. The cell suspension was filtered through a 70 μm cell strainer and then centrifuged at 50 g for 5 min at 4° C. to eliminate hepatocytes. Cells remaining in the supernatant were layered on HISTOPAQUE®-1083 and centrifuged at 1000 g for 15 min at 4° C. without a break. The non-parenchymal cell fraction was washed once with PBS at 300 g for 10 min at 4° C., followed by flow cytometry.
Nonparenchymal cells isolated from Trem1^+/+ livers with CCl4 injury receiving VJDT treatment were analyzed by flow cytometry to evaluate the infiltration of myeloid cells. Liver-associated cells were classified into 3 populations: F4/80^+CD11b^− resident Kupffer cells, F4/80^+CD11b^+Ly6C^hiLy6G^lo monocyte-derived macrophages and F4/80^+CD11b^+Ly6C^loLy6G^hi inflammatory neutrophils.

Data set [8] concerns B16F10 cells. Put plainly: Cell cycle assay via propidium iodide. The data set is classed as cell-based, murine. Particulars: B16F10 cells with or without treatment. The protocol: as §2
For data set [9], the system named is human hepatocellular carcinoma cells (HepG2). Put plainly: Cell proliferation, Cell Counting Kit-8 (CCK-8). The data set is classed as cell-based. Particulars: HepG2, 72 hrs treatment, n=6, read-out: IC50 to inhibit cell proliferation. Here is the method: Cell proliferation was measured using Cell Counting Kit-8 (CCK-8, GLPBIO, Montclair, CA. Catalog No. GK10001) according to the manufacturer's instructions. HepG2 cells were seeded in a 96-well plate at 3×10^3 cells/well and incubated at 37° C. in complete medium for 24 hrs before being treated with the indicated concentrations of VIDT for 72 hrs. After treatment, cells were incubated with 10 μl CCK8 at 37° C. for 2 hrs. Absorbance at 450 nm was determined using a microplate reader. The IC50 value was calculated on the nonlinear regression fit method by the GraphPad Prism software.
A general note: Formazan colour is commonly taken as a measure of viable cells.

T1 sequence (Q9NP99 21-234): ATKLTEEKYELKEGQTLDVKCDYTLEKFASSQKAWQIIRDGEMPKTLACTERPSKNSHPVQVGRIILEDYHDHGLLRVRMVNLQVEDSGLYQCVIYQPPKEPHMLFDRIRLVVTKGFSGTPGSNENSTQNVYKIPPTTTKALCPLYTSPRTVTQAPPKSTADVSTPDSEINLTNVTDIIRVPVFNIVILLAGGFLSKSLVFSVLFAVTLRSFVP

Take `N#CC1=CC2CN(Cc3ccccc3)C1C1C(=O)N(c3ccccc3)C(=O)C21` (stereo not shown) [Compound 118818, 9-Benzyl-1,3-dioxo-2-phenyl-2,3,3a,4,7,7a-hexahydro-1H-4,7-(epiminomethano) isoindole-5-carbonitrile]: in data set [1], the “binding and activation of TREM-1 receptor on reporter cells (GFP expression)” value (shortened to “binding and activation”) was “significant enhancement of GFP expression”. Further, the “number of neutrophils (indicating level of cytotoxicity)” value in data set [2] is on record as 19,5%.

As to `Cc1ccc(NC(=O)Nc2nc3ccccc3s2)cc1NC(=O)Nc1nc2ccccc2s1` [Compound 319990], the “binding and activation” value in [1] is on record as “significant enhancement of GFP expression”. In addition, in data set [3], the “cytotoxicity effect on reporter cells” value is “higher cytotoxicity effect”.

For the molecule `O=c1c(O)c(-c2ccc(O)cc2O)oc2cc(O)cc(O)c12` [Morin Hydrate, 2′,3,4′,5,7-pentahydroxyflavone], in [2], the “number of neutrophils (indicating level of cytotoxicity)” value is recorded as 24.3%.

For `N#CC1=CC2C(=O)N(Cc3ccccc3)C1C1C(=O)N(c3ccccc3)C(=O)C21` [VJDT 8293, (3aR,7aR)-9-benzyl-1,3,8-trioxo-2-phenyl-2,3,3a,4,7,7a-hexahydro-1H-4,7-(epiminomethano) isoindole-5-carbonitrile], the “inhibitory effect on TREM-1 mediated proinflammatory cytokine production” value in data set [4] is “much stronger inhibitory effect”. The “cell migration in wound healing assay” value in [5] was “significantly inhibits”; in data set [5] (listed as VIDT), “significantly inhibited”. Moreover, in data set [6], the “cell proliferation (CFSE intensity)” value is reported as “significantly inhibites”. Besides, the “infiltration of monocyte-derived macrophages in liver” value in [7] (5 consecutive days prior to CCl4 (2 ml/kg), 24 hrs after injury, p<0.001) is reported as 3-6%. The “infiltration of inflammatory neutrophils in liver” value in data set [7] (5 consecutive days prior to CCl4 (2 ml/kg), 24 hrs after injury, p<0.01) is 8-10%. Moreover, the “protective effect to liver injury” value in [7] (CCl4 injury) was “strong protective effect”. Further, in [7] (compared to control group (DMSO vehicle)), the “cytokine secretion in neutrophils” value is given as “significantly decreased cytokine secretion”. For the same molecule, the cell cycle arrest entry in data set [8] was “significant cell cycle arrest in the S and G2 phases”. For the same molecule, the pIC50 in data set [9] was 4.83.

For `Cc1c(O)ccc2c(O)c(NC(=O)c3ccc4c(c3)CCC(C)(C)O4)c(=O)oc12` [compound 5157], in data set [1], the “binding and activation” value is on record as “significant enhancement of GFP expression”; the “inhibitory effect on agonist-activated TREM-1-specific cells” value is given as “did not provide any inhibitory effect”.

Turning to `O=C(O)Cc1ccc(N=Nc2c(O)c(C(=O)O)cc3ccccc23)cc1` [compound 156563], in data set [1], the “binding and activation” value is recorded as “significant enhancement of GFP expression”; the “inhibitory effect on agonist-activated TREM-1-specific cells” value was “did not provide any inhibitory effect”.
